Source: patent publication US20040219112A1, “Method of whitening teeth, tooth whitening composition and tooth whitening set” (priority 2001, published 2004)

Tests used:
[1] = Whitening of extracted human tooth enclosed in PP non-woven sheet coated with gel of 50% whitening compound, L*a*b* (CIE) whiteness; design: key to Effect (3): whiteness (Δ|L|+Δ|b|) of the tooth / Effect (4): prolonged effect, whiteness (Δ|L|+Δ|b|) of the tooth: whiteness = Δ|L|+Δ|b| (CIE L*a*b*), change before vs after treatment; settings: gel of 50% compound; for Effect (4): prolonged effect, whiteness (Δ|L|+Δ|b|) of the tooth / Effect (3): whiteness (Δ|L|+Δ|b|) of the tooth: 0.5% jellan gum, 49.5% water; for Effect (4): prolonged effect, whiteness (Δ|L|+Δ|b|) of the tooth: measured after immersion in water (10 ml, 37° C.) for 1 hour; for Effect (3): whiteness (Δ|L|+Δ|b|) of the tooth: measured immediately after 1 hour at 37° C.; for Result (prolonged effect rating): rating of prolonged effect after 1 hour in water
Description: (§1) An experiment was conducted as follows with an extracted human tooth which had previously been examined for L*a*b* values (CIE). The tooth was enclosed in a sheet of non-woven fabric of PP coated with a gel composed of 50% of the whitening compound specified below, 0.5% of jellan gum, and 49.5% of water, and the resulting object was allowed to stand at 37° C. for 1 hour in a closed glass bottle. The tooth was examined again for L*a*b* values (CIE). The ΔL and Δb values measured before and after treatment were used to calculate the whiteness (Δ|L|+Δ|b|) of the tooth, which is a measure of the effect (3).
(§2) The tooth which had been processed as mentioned above was again allowed to stand at 37° C. for 1 hour in a closed glass bottle containing 10 ml of water at 37° C. Then, the tooth was examined again for L*a*b* values (CIE). The ΔL and Δb values measured before and after treatment were used to calculate the whiteness (Δ|L|+Δ|b|) of the tooth, which is a measure of the prolonged effect (4).

[2] = Whitening of extracted human tooth enclosed in absorbent cotton impregnated with liquid compound (100%), L*a*b* (CIE) whiteness; settings: compound conc. 100%; for Effect (2): prolonged effect, whiteness (Δ|L|+Δ|b|) of the tooth: measured after immersion in water (10 ml, 37° C.) for 1 hour; for Effect (1): whiteness (Δ|L|+Δ|b|) of the tooth: measured immediately after immersion in the compound for 1 hour at 37° C.; for Result (prolonged effect rating): rating of prolonged effect after 1 hour in water
Description: as §1, with “absorbent cotton impregnated” for “a sheet of non-woven fabric of PP coated”, “liquid” for “gel composed of 50% of the whitening”, “(in 100% concentration) shown” for “specified”, “below,” for “below, 0.5% of jellan gum, and 49.5% of water,”, “(1).” for “(3).”
as §2, with “(2).” for “(4).”

Compound	Effect (4): prolonged effect, whiteness (Δ|L|+Δ|b|) of the tooth [1]	Effect (3): whiteness (Δ|L|+Δ|b|) of the tooth [1]	Result (prolonged effect rating) [1]	Effect (2): prolonged effect, whiteness (Δ|L|+Δ|b|) of the tooth [2]	Effect (1): whiteness (Δ|L|+Δ|b|) of the tooth [2]	Result (prolonged effect rating) [2]
CC(O)CCO (stereo not drawn) [1,3-butylene glycol]	0.5	0.9	◯ (◯ denotes a prolonged effect with a value larger than 0.5)	5.6	11.3	⊚ (⊚ denotes a significant prolonged effect with a value larger than 1)
OCCOCCO [Diethylene glycol]	1.1	1.3	⊚ (⊚ denotes a significant prolonged effect with a value larger than 1)	2.6	14.4	⊚ (⊚ denotes a significant prolonged effect with a value larger than 1)
CCO [Ethanol]	1.9	1.5	⊚ (⊚ denotes a significant prolonged effect with a value larger than 1)	3.0	12.8	⊚ (⊚ denotes a significant prolonged effect with a value larger than 1)
OCCO [Ethylene glycol]	0.7	1.6	◯ (◯ denotes a prolonged effect with a value larger than 0.5)	2.6	9.3	⊚ (⊚ denotes a significant prolonged effect with a value larger than 1)
CC(C)O [Isopropyl alcohol]	0.5	1.1	◯ (◯ denotes a prolonged effect with a value larger than 0.5)	8.3	15.8	⊚ (⊚ denotes a significant prolonged effect with a value larger than 1)
CC(O)CO (stereo not drawn) [Propylene glycol]	1.0	1.0	⊚ (⊚ denotes a significant prolonged effect with a value larger than 1)	2.8	8.4	⊚ (⊚ denotes a significant prolonged effect with a value larger than 1)
PEG #300	0.8	1.8	◯ (◯ denotes a prolonged effect with a value larger than 0.5)	3.7	10.7	⊚ (⊚ denotes a significant prolonged effect with a value larger than 1)
Polyethylene glycol #200 [PEG #200]	0.9	0.6	◯ (◯ denotes a prolonged effect with a value larger than 0.5)	4.8	12.5	⊚ (⊚ denotes a significant prolonged effect with a value larger than 1)
Polyethylene glycol #400 [PEG #400]	0.6	0.7	◯ (◯ denotes a prolonged effect with a value larger than 0.5)	1.5	8.1	⊚ (⊚ denotes a significant prolonged effect with a value larger than 1)
Polyethylene glycol #600 [PEG #600]	0.8	0.7	◯ (◯ denotes a prolonged effect with a value larger than 0.5)	0.6	12.0	◯ (◯ denotes a prolonged effect with a value larger than 0.5)
